Where “and” joins values, the source holds several entries; their conditions need not be identical. Equal entries are not always repeated.
What was measured:
[1] = test system: HGC27-S/R and AGS cell lines; test: Autophagy assay (western blot of autophagy proteins); assay type: cell-based, human; conditions: 48 h, 1 and 10 µM (AM630 1 and 6 µM)
Procedure: Cells were rinsed with ice-cold lysis buffer (50 mM Tris,10 mM EDTA, 1% v/v Triton-X100), supplemented with protease inhibitor cocktail set III (80 µM aprotinin, 5 mM bestatin, 1.5 mM leupeptin, 1 mM pepstatin; Sigma-Merck, St. Louis, MO), 2 mM phenylmethyl sulfonyl fluoride and 1 mM Na3VO4, then sonicated and centrifuged at 13,000 g for 10 min at 4 °C. 20 µg protein extracts were subjected to SDS-PAGE and probed with the following antibodies: anti-ATG5 (#ab108327, diluted 1:1000), anti-ATG7 (#ab52472, diluted 1:5000), anti-ATG12 (#ab303488, diluted 1:1000), anti-Beclin (#ab210498, diluted 1:1000), anti-p62 (#ab109012, diluted 1:10000), anti-LC3 (#ab192890, diluted 1:2000)(all from Abcam, Cambridge, UK) or anti-β-tubulin antibody (#sc-5274, diluted 1:1000; Santa Cruz Biotechnology Inc.,Santa Cruz, CA, USA), followed by incubation with a peroxidase conjugated secondary antibody (Bio-Rad Laboratories, Hercules, CA). After washing in Tris-buffered saline (TBS)-Tween 0.1% v/v solution, proteins were detected by enhanced chemiluminescence (Bio-Rad Laboratories).Total protein expression was quantified using the ImageJ software (http://rsb.info.nih.gov/ij/). The expression level of each of the investigated protein was normalized to the β-tubulin level.

[2] = test system: CB2R; test: CB2R affinity (literature values); assay type: binding; conditions: CB2R vs CB1R
[3] = test system: NCI-N87_LUC cell line; test: Mouse model by intraperitoneal NCI-N87_LUC inoculation, tumor growth by IVIS; assay type: in vivo, CD1-nude female mice; conditions: for BLI measurement, individual animals: listed as FI-5; for tumor volume vs control group (vehicle): day 41
Procedure: EighteenCD1-nude female mice(Charles River Laboratories International, Inc.) were intraperitoneally injected with the NCI-N87 cell line, stable transfected with the luciferase gene (NCl-N87_LUC) at a concentration of 2 × 10^6/100µL cells. Experimental groups and treatments are described in the table below (Table 1). Two concentrations of the CC48 molecule, 10 and 20 mg/Kg, were tested in two experimental groups. A third group was treated with the vehicle, consisting of20% DMSO, 10% Cyclodextrin and distilled water. […] The staff involved in the study recorded all the observations on recording forms. The data concerning animals’ body weight, clinical signs, feed intake and TP intake were recorded on the experimental register. All the corrections on data collection forms were made according to the Test Facility SOPs. All derived values, of registered tumor volumes, which are reported in the Tables S2 and S3 and relative graphs, such as mean and standard deviation, represent the rounded-up results of calculation performed with Microsoft Excel. Dunnett’s multiple comparison statistical test was applied.

[4] = test system: NCI-N87_LUC cell line; test: Ki67 immunohistochemistry of tumor explants; assay type: in vivo, CD1-nude female mice; conditions: GP2/GP3 (10 and 20 mg/kg); vehicle 35%
Procedure: Tissue blocks fixed in formalin and embedded in paraffin were obtained from the explants of the tumor masses of each specimen. Sections stained with hematoxylin and eosin (H&E) were reviewed by a pathologist to confirm the adequacy of the sample, and to evaluate the morphologic and/or pathological characteristics of each sample. […] IHC analysis was carried out in sections after deparaffinization for 30 min and then rehydration in grades of alcohol. Antigen retrieval was performed at 90 °C for 20 min with Tris-borate-EDTA Buffer. To assess the Ki67, IHC was again carried out on all cases on paraffin-embedded sections using an anti-Ki67 Ab diluted 1:100 (Mib-1; DAKO) following the manufacturer’s instructions.

[5] = test system: circulating cytokines (eotaxin, G-CSF, p40IL-12); test: Serum cytokine quantification (Bio-Plex); assay type: in vivo, CD1-nude female mice
Procedure: Serum levels of 23 cytokines [G-CSF, GM-CSF, GRO/KC (CXCL1), IFN-γ, IL-1α, IL-1β, IL-2, IL-3, IL-4, IL-5, IL-6, IL-9, IL-10, IL-12 (p70), IL-13, IL-17 A, IL-18, MCP-1 (CCL2), MIP-1α, MIP-1β, RANTES, TNF-α, and eotaxin] were measured using Bio-Plex Pro Rat Cytokine 23-Plex™ (#M60009RDPD) magnetic bead-based assays (Bio-Rad Laboratories) on the Bio-Plex® platform (Bio-Rad), according to the manufacturer’s instructions. […] Cytokine expression (pg/mL) for each sample was multiplied by the dilution factor prior to the percent baseline calculation.

[6] = test system: CB1R; parameters: method as in PMID 36657299; conditions: cited from earlier work
[7] = Body weight, serum biochemistry and urinalysis in treated mice; conditions: GP2 and GP3 (10 and 20 mg/kg)
Procedure: All the animals were fed ad libitum with complete mouse feed, and water was provided ad libitum. The body weight for each animal was recorded weekly, starting from day 0 until the end of the study.
Physical observations of health status, including visual checks on the mice general appearance (e.g. fur and activity levels/responsiveness), were made daily. On day 45, the animals were individually housed in metabolic cages for 24 h, with free access to water and food, in order to perform urine collection and urinalysis. Immediately before metabolic cage housing, animals were subjected to a water load (10 mL/kg by oral gavage) in order to allow urine volume normalization. In addition, blood samples were taken from the submandibular vein after isoflurane anesthesia and before sacrifice at the end of the study period. The blood was collected in Eppendorf tubes and then centrifuged at about 8,000 rpm for 15 min at 4 °C for serum collection.

COc1ccc(C(=O)c2c(C)n(CCN3CCOCC3)c3cc(I)ccc23)cc1 [AM630, reference compound]
expression of autophagy proteins (ATG5, ATG7, ATG12, Beclin-1, p62, LC3-II) [1]: dose-dependent increase of autophagic proteins

CCCCCNc1ccccc1C(=O)NC12CC3CC(CC(C3)C1)C2 [ASF151]
expression of autophagy proteins (ATG5, ATG7, ATG12, Beclin-1, p62, LC3-II) [1]: less potent inducer of some autophagy-related proteins

O=C(NC12CC3CC(CC(C3)C1)C2)c1ccccc1OCc1ccccc1 [CC48]
fold higher affinity for CB2R compared to CB1R [2]: 16 fold | BLI measurement, group MEAN ([3]; GP2 10mg/kg, DAY 5, n 5 (outlier ID 7 excluded)): 1,45E+05 | BLI measurement, individual animals ([3]; GP2 10mg/kg, DAY 5): 1,32E+06 and 5,58E+05 and 1,13E+05 and 4,14E+04 and 9,93E+03 and 3,23E+03 | BLI measurement, group MEAN ([3]; GP2 10mg/kg, DAY 7, n 5): 1,29E+05 | BLI measurement, individual animals ([3]; GP2 10mg/kg, DAY 7): 1,55E+06 and 5,41E+05 and 7,10E+04 and 2,79E+04 and 3,30E+03 and 2,39E+03 | BLI measurement, group MEAN ([3]; GP2 10mg/kg, DAY 10, n 5): 1,07E+05 | BLI measurement, individual animals ([3]; GP2 10mg/kg, DAY 10): 1,30E+06 and 4,73E+05 and 4,20E+04 and 1,70E+04 and 2,56E+03 and 2,69E+03 | BLI measurement, group MEAN ([3]; GP2 10mg/kg, DAY 14, n 5): 1,83E+05 | BLI measurement, individual animals ([3]; GP2 10mg/kg, DAY 14): 7,07E+05 and 8,53E+05 and 3,80E+04 and 1,58E+04 and 2,68E+03 and 3,22E+03 | BLI measurement, group MEAN ([3]; GP2 10mg/kg, DAY 17, n 5): 2,73E+05 | BLI measurement, individual animals ([3]; GP2 10mg/kg, DAY 17): 8,99E+05 and 1,29E+06 and 6,23E+04 and 1,12E+04 and 1,95E+03 and 1,85E+03 | BLI measurement, group MEAN ([3]; GP2 10mg/kg, DAY 24, n 5): 3,18E+05 | BLI measurement, individual animals ([3]; GP2 10mg/kg, DAY 24): 1,09E+06 and 1,51E+06 and 6,35E+04 and 1,11E+04 and 2,24E+03 and 2,96E+03 | BLI measurement, group MEAN ([3]; GP2 10mg/kg, DAY 31, n 5): 3,12E+05 | BLI measurement, individual animals ([3]; GP2 10mg/kg, DAY 31): 1,51E+06 and 1,43E+06 and 1,11E+05 and 1,60E+04 and 3,40E+03 and 3,65E+03 | BLI measurement, group MEAN ([3]; GP2 10mg/kg, DAY 35, n 5): 2,44E+05 | BLI measurement, individual animals ([3]; GP2 10mg/kg, DAY 35): 2,93E+06 and 1,06E+06 and 1,41E+05 and 1,56E+04 and 3,01E+03 and 3,50E+03 | BLI measurement, group MEAN ([3]; GP2 10mg/kg, DAY 38, n 5): 4,60E+04 | BLI measurement, individual animals ([3]; GP2 10mg/kg, DAY 38): 4,74E+06 and 1,04E+05 and 1,11E+05 and 9,13E+03 and 2,90E+03 and 2,69E+03 | BLI measurement, group MEAN ([3]; GP2 10mg/kg, DAY 41, n 5): 2,12E+05 | BLI measurement, individual animals ([3]; GP2 10mg/kg, DAY 41): 3,93E+06 and 8,93E+05 and 1,54E+05 and 9,95E+03 and 3,19E+03 and 2,28E+03 | tumor volume vs control group (vehicle) ([3]; GP2, 10 mg/kg IP every other day, p < 0.01): substantial and significant decrease in tumor volume | BLI measurement, group MEAN ([3]; GP3 20mg/kg, DAY 5, n 5 (outlier ID 13 excluded)): 2,03E+05 | BLI measurement, individual animals ([3]; GP3 20mg/kg, DAY 5): 1,03E+06 and 8,12E+05 and 1,11E+05 and 7,63E+04 | BLI measurement, group MEAN ([3]; GP3 20mg/kg, DAY 7, n 5): 1,10E+05 | BLI measurement, individual animals ([3]; GP3 20mg/kg, DAY 7): 7,47E+05 and 4,61E+05 and 2,67E+04 and 5,08E+04 | BLI measurement, group MEAN ([3]; GP3 20mg/kg, DAY 10, n 5): 8,98E+04 | BLI measurement, individual animals ([3]; GP3 20mg/kg, DAY 10): 3,56E+05 and 3,68E+05 and 3,53E+04 and 3,80E+04 | BLI measurement, group MEAN ([3]; GP3 20mg/kg, DAY 14, n 5): 1,18E+05 | BLI measurement, individual animals ([3]; GP3 20mg/kg, DAY 14): 1,23E+06 and 5,29E+05 and 3,27E+04 and 1,72E+04 | BLI measurement, group MEAN ([3]; GP3 20mg/kg, DAY 17, n 5): 1,51E+05 | BLI measurement, individual animals ([3]; GP3 20mg/kg, DAY 17): 1,63E+06 and 7,10E+05 and 2,61E+04 and 1,16E+04 | BLI measurement, group MEAN ([3]; GP3 20mg/kg, DAY 24, n 5): 2,46E+05 | BLI measurement, individual animals ([3]; GP3 20mg/kg, DAY 24): 1,67E+06 and 1,15E+06 and 3,46E+04 and 3,03E+04 | BLI measurement, group MEAN ([3]; GP3 20mg/kg, DAY 31, n 5): 2,64E+05 | BLI measurement, individual animals ([3]; GP3 20mg/kg, DAY 31): 1,22E+06 and 1,26E+06 and 2,79E+04 and 1,85E+04 | BLI measurement, group MEAN ([3]; GP3 20mg/kg, DAY 35, n 5): 3,58E+05 | BLI measurement, individual animals ([3]; GP3 20mg/kg, DAY 35): 2,08E+06 and 1,71E+06 and 4,56E+04 and 2,63E+04 | BLI measurement, group MEAN ([3]; GP3 20mg/kg, DAY 38, n 5): 2,00E+05 | BLI measurement, individual animals ([3]; GP3 20mg/kg, DAY 38): 2,42E+06 and 9,14E+05 and 3,50E+04 and 4,29E+04 | BLI measurement, group MEAN ([3]; GP3 20mg/kg, DAY 41, n 5): 2,00E+04 | BLI measurement, individual animals ([3]; GP3 20mg/kg, DAY 41): 1,34E+06 and 3,58E+04 and 3,11E+04 and 2,06E+04 | tumor volume vs control group (vehicle) ([3]; GP3, 20 mg/kg IP every other day, p < 0.001): statistically significant difference in the size of the tumor mass | percentage of Ki67-stained nuclei in tumor [4]: 15–20% | serum G-CSF level vs GP1 ([5]; GP2, 10 mg/kg, p < 0.01): significant decrease | serum eotaxin level vs GP1 ([5]; GP3, 20 mg/kg): tended to decrease | serum G-CSF level vs GP1 ([5]; GP3, 20 mg/kg, p < 0.05): maintained at the highest dose | serum p40IL-12 level vs GP1 ([5]; GP3, 20 mg/kg, p < 0.05): significant decrease | EC50 [6]: 489 nM | body weight vs vehicle [7]: No statistically significant differences were observed | serum AST, ALT, Cre, UREA and GFR vs vehicle [7]: No statistically significant differences in biochemical results

From article PMC12265377, “CC48 a new CB2R agonist/FAAH inhibitor dual drug blocks gastric cancer progression and overcomes paclitaxel resistance” (Journal of Experimental & Clinical Cancer Research : CR, 2025)
